Measurements published in patent US20250100996A1, “HETEROCYCLOALKYL AND HETEROARYL COMPOUNDS AND PHARMACEUTICAL COMPOSITIONS THAT MODULATE IKZF2” (Plexium, Inc., priority 2021, published 2025).

What was measured:
[1] = target: T1, human E3 ligase component cereblon (CRBN) (Homo sapiens, UniProt Q96SW2); experiment: Cereblon (CRBN) target engagement, NanoBRET TE Intracellular E3 Ligase Assay in transfected HEK-293T cells; details: read-out: CRBN Binding EC50
T1 construct: host or cells: HEK293T
Summary of the method: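 Tracer displacement was read as the 610/450 nm BRET signal after 2 h at 37° C with an 11-point dilution series, typically 10 μM to 100 pM. Live HEK-293T cells expressed NanoLuc fused N-terminal to human CRBN together with DDB1. IC50 was fitted with a four-parameter logistic model.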

IKZF2 (Helios) [2] = target: T2, IKZF2 (Helios) (Homo sapiens, UniProt Q96SW2+Q9UKS7); experiment: IKZF2 reporter degradation assay (HEK 293T IKZF2-mNeonGreen reporter cell line); type: cell-based; details: HEK-293T, 24 h, @ 1 μM, HEK 293T IKZF2-mNeonGreen reporter, 24 hours incubation
T2 construct: Leu-Asp junction (codons ctcgac before the linker); mScarlet (behind P2A) (C, cleaved yes); expressed in transfected cells
Summary of the method: (§1)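 Readout: percent of cells positive for the mNeonGreen-tagged IKZF reporter, imaged after 24 h of compound exposure at 37 °C in stable HEK 293T lines. The P2A-linked mScarlet defined the cells. DC50 values came from four-parameter logistic regression.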

IKZF2 (Helios) [3] = target: T3, IKZF2 (Helios) (Homo sapiens, UniProt Q9UKS7); experiment: as above; type: cell-based; details: HEK 293T IKZF2-mNeonGreen reporter, 24 hours incubation
T3 construct: Leu-Asp junction (codons ctcgac before the linker); mScarlet (behind P2A) (C, cleaved yes); expressed in transfected cells
Summary of the method: as §1

IKZF3 (Aiolos) = target: T4, IKZF3 (Aiolos) (Homo sapiens, UniProt Q9UKT9); experiment: IKZF3 reporter degradation assay (HEK 293T IKZF3-mNeonGreen reporter cell line); type: cell-based; details: HEK 293T IKZF3-mNeonGreen reporter, 24 hours incubation; for inhibition at 1 µM: HEK-293T, 24 h
T4 construct: Leu-Asp junction (codons ctcgac before the linker); mScarlet (behind P2A) (C, cleaved yes); expressed in transfected cells
Summary of the method: as §1

T1 sequence (Q96SW2 whole entry): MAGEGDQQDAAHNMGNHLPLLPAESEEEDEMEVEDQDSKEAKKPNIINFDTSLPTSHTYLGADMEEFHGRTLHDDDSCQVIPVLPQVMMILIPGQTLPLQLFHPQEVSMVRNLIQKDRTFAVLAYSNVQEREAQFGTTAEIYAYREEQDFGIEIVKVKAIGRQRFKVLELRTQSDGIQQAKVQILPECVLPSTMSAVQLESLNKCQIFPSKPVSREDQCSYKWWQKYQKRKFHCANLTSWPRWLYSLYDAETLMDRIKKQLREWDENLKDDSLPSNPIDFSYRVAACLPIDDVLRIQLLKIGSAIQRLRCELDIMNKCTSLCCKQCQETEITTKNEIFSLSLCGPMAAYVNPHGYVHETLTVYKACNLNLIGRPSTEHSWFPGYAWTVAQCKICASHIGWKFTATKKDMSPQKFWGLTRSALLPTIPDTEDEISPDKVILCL
T1 sequence (Q16531 whole entry partner): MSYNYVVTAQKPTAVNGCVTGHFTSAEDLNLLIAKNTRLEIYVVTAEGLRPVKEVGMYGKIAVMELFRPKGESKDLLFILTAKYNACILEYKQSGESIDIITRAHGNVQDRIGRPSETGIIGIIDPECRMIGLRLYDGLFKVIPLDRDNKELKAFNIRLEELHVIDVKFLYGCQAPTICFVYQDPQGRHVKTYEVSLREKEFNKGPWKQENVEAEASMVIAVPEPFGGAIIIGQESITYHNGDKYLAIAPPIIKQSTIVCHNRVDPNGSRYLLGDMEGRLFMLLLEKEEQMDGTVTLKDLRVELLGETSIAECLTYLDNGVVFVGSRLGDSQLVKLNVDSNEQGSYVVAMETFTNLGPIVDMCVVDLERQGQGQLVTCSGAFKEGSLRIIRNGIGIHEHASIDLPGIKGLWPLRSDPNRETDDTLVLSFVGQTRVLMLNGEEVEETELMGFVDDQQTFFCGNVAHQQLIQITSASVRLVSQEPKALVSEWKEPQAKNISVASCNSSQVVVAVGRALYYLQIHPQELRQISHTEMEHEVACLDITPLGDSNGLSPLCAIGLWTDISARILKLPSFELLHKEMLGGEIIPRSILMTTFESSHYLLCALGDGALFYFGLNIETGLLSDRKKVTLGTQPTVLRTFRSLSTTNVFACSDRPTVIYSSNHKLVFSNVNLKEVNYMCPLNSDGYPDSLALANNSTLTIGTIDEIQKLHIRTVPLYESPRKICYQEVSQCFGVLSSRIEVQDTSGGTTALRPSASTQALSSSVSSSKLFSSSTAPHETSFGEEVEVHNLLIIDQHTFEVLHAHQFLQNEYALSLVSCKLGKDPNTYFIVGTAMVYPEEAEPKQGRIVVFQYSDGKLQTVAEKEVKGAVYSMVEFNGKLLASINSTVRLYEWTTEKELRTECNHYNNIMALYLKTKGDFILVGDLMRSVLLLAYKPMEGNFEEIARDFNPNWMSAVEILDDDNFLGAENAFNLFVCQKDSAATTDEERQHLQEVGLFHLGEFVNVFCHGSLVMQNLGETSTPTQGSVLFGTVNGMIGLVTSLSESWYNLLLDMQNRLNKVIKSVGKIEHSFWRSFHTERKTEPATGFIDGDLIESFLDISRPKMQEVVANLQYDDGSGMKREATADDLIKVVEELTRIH
T4 sequence (Q96SW2 whole entry partner): as the sequence (Q96SW2 whole entry) above
T4 sequence (Q16531 whole entry partner): as the sequence (Q16531 whole entry partner) above
T4 sequence (Q9UKT9 whole entry): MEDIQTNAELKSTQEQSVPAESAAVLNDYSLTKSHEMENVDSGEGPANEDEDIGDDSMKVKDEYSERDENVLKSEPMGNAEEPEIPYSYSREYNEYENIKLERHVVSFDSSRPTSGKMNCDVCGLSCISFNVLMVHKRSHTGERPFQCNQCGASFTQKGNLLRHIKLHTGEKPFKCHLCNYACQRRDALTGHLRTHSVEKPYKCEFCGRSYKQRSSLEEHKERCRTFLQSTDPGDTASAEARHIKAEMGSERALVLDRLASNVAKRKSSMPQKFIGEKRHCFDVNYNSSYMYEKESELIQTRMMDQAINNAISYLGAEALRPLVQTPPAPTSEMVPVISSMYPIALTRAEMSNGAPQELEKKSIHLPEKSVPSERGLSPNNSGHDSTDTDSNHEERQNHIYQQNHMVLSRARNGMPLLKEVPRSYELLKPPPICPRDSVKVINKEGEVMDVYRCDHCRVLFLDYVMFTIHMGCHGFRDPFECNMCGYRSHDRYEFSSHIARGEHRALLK
T3 sequence (Q9UKS7 whole entry): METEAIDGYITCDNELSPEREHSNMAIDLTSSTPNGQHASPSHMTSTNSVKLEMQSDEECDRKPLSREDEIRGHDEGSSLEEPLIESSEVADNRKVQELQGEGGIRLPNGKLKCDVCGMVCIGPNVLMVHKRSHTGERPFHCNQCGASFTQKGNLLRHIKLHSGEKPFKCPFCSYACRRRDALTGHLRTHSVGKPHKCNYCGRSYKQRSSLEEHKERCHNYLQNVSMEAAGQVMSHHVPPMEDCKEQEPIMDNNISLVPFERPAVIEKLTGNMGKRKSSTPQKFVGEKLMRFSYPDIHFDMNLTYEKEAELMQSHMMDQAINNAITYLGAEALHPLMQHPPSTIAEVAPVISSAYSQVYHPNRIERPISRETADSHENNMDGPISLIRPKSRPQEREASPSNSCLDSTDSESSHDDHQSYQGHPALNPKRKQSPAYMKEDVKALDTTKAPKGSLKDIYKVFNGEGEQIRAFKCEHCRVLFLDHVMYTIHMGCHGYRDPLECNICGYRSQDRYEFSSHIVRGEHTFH
T3 sequence (Q96SW2 whole entry, further chain): as the sequence (Q96SW2 whole entry) above
T3 sequence (Q16531 whole entry partner): as the sequence (Q16531 whole entry partner) above
T2 sequence (Q9UKS7 whole entry): as the sequence (Q9UKS7 whole entry) above
T2 sequence (Q96SW2 whole entry): as the sequence (Q96SW2 whole entry) above
T2 sequence (Q16531 whole entry partner): as the sequence (Q16531 whole entry partner) above

SMILES	EC50 [1] [nM]	inhibition at 1 µM (IKZF2 (Helios) [2]) [%]	DC50 (IKZF2 (Helios) [3]) [nM]	DC50 (IKZF3 (Aiolos)) [nM]	inhibition at 1 µM (IKZF3 (Aiolos)) [%]
O=C1CCC(N2Cc3cc(O[C@H]4CCCC[C@@H]4N4CC(c5ccc6cccnc6c5)C4)ccc3C2=O)C(=O)N1 (stereo partly drawn) [Compound 87-B, 3-(1-oxo-5-(((1S,2S)-2-(3-(quinolin-7-yl)azetidin-1-yl)cyclohexyl)oxy)isoindolin-2-yl)piperidine-2,6-dione]	3	87.5	4	> 30000	
O=C1CCC(N2Cc3cc(O[C@H]4CCCC[C@@H]4N4CC(C5CCOC5)C4)ccc3C2=O)C(=O)N1 (stereo partly drawn) [Compound 14-A, 3-(1-oxo-5-(((1S,2S)-2-(3-(tetrahydrofuran-3-yl)azetidin-1-yl)cyclohexyl)oxy)isoindolin-2-yl)piperidine-2,6-dione]	39	67.4	28	> 30000	
N#CC1(C(=O)N2CCC(C3CN([C@H]4CCCC[C@@H]4Oc4ccc5c(c4)CN(C4CCC(=O)NC4=O)C5=O)C3)CC2)CC1 (stereo partly drawn) [Compound 27-A, 1-(4-(1-((1S,2S)-2-((2-(2,6-dioxopiperidin-3-yl)-1-oxoisoindolin-5-yl)oxy)cyclohexyl)azetidin-3-yl)piperidine-1-carbonyl)cyclopropane-1-carbonitrile]	10	84.6	8	110	44
O=C1CCC(N2Cc3cc(O[C@H]4CCCC[C@@H]4N4CC(C5CCN(S(=O)(=O)C6CCC6)CC5)C4)ccc3C2=O)C(=O)N1 (stereo partly drawn) [Compound 57-A, 3-(5-(((1S,2S)-2-(3-(1-(cyclobutylsulfonyl)piperidin-4-yl)azetidin-1-yl)cyclohexyl)oxy)-1-oxoisoindolin-2-yl)piperidine-2,6-dione]	3	85.4	2	> 30000	
O=C1CCC(N2Cc3cc(O[C@H]4CCCC[C@@H]4N4CC(C5CCOCC5F)C4)ccc3C2=O)C(=O)N1 (stereo partly drawn) [Compound 55-A, 3-(5-(((1S,2S)-2-(3-(3-fluorotetrahydro-2H-pyran-4-yl)azetidin-1-yl)cyclohexyl)oxy)-1-oxoisoindolin-2-yl)piperidine-2,6-dione]	14	83.8	5	> 30000	
N#CC1(C(=O)N2CCC(C3CN([C@H]4CCCC[C@@H]4Oc4ccc5c(c4)CN(C4CCC(=O)NC4=O)C5=O)C3)CC2)CCC1 (stereo partly drawn) [Compound 30-A, 1-(4-(1-((1S,2S)-2-((2-(2,6-dioxopiperidin-3-yl)-1-oxoisoindolin-5-yl)oxy)cyclohexyl)azetidin-3-yl)piperidine-1-carbonyl)cyclobutane-1-carbonitrile]	4	84.4	0.5	14	63.4
CC1(C(=O)N2CCC(C3CN([C@H]4CCCC[C@@H]4Oc4ccc5c(c4)CN(C4CCC(=O)NC4=O)C5=O)C3)CC2)CCCC1 (stereo partly drawn) [Compound 33-A, 3-(5-(((1S,2S)-2-(3-(1-(1-methylcyclopentane-1-carbonyl)piperidin-4-yl)azetidin-1-yl)cyclohexyl)oxy)-1-oxoisoindolin-2-yl)piperidine-2,6-dione]	7	88.4		6	60.8
CC1CC1C(=O)N1CCC(C2CN([C@H]3CCCC[C@@H]3Oc3ccc4c(c3)CN(C3CCC(=O)NC3=O)C4=O)C2)CC1 (stereo partly drawn) [Compound 35-A, 3-(5-(((1S,2S)-2-(3-(1-(2-methylcyclopropane-1-carbonyl)piperidin-4-yl)azetidin-1-yl)cyclohexyl)oxy)-1-oxoisoindolin-2-yl)piperidine-2,6-dione]	8	88.2	1	8070	23.5
O=C1CCC(N2Cc3cc(O[C@H]4CCCC[C@@H]4N4CC(C5CCN(C(=O)CC6CC6)CC5)C4)ccc3C2=O)C(=O)N1 (stereo partly drawn) [Compound 34-A, 3-(5-(((1S,2S)-2-(3-(1-(2-cyclopropylacetyl)piperidin-4-yl)azetidin-1-yl)cyclohexyl)oxy)-1-oxoisoindolin-2-yl)piperidine-2,6-dione]	10	88	2	544	24.9
CC12CC(C(=O)N3CCC(C4CN([C@H]5CCCC[C@@H]5Oc5ccc6c(c5)CN(C5CCC(=O)NC5=O)C6=O)C4)CC3)(C1)C2 (stereo partly drawn) [Compound 28-A, 3-(5-(((1S,2S)-2-(3-(1-(3-methylbicyclo[1.1.1]pentane-1-carbonyl)piperidin-4-yl)azetidin-1-yl)cyclohexyl)oxy)-1-oxoisoindolin-2-yl)piperidine-2,6-dione]	3	82.5	2	13	67.5
O=C1CCC(N2Cc3cc(O[C@H]4CCCC[C@@H]4N4CC(C5CCN(C(=O)C6CC(F)(F)C6)CC5)C4)ccc3C2=O)C(=O)N1 (stereo partly drawn) [Compound 32-A, 3-(5-(((1S,2S)-2-(3-(1-(3,3-difluorocyclobutane-1-carbonyl)piperidin-4-yl)azetidin-1-yl)cyclohexyl)oxy)-1-oxoisoindolin-2-yl)piperidine-2,6-dione]	5	84.7	1	71	24.1
CC1(C(=O)N2CCC(C3CN([C@H]4CCCC[C@@H]4Oc4ccc5c(c4)CN(C4CCC(=O)NC4=O)C5=O)C3)CC2)CC1 (stereo partly drawn) [Compound 31-A, 3-(5-(((1S,2S)-2-(3-(1-(1-methylcyclopropane-1-carbonyl)piperidin-4-yl)azetidin-1-yl)cyclohexyl)oxy)-1-oxoisoindolin-2-yl)piperidine-2,6-dione]	6	88.2	0.1	61	26.2
O=C1CCC(N2Cc3cc(O[C@H]4CCCC[C@@H]4N4CC(C5CCN(C(=O)C6(F)CC6)CC5)C4)ccc3C2=O)C(=O)N1 (stereo partly drawn) [Compound 42-A, 3-(5-(((1S,2S)-2-(3-(1-(1-fluorocyclopropane-1-carbonyl)piperidin-4-yl)azetidin-1-yl)cyclohexyl)oxy)-1-oxoisoindolin-2-yl)piperidine-2,6-dione]	3	87.3	1	21	31
CC1(C(=O)N2CCC(C3CN([C@H]4CCCC[C@@H]4Oc4ccc5c(c4)CN(C4CCC(=O)NC4=O)C5=O)C3)CC2)COC1 (stereo partly drawn) [Compound 29-A, 3-(5-(((1S,2S)-2-(3-(1-(3-methyloxetane-3-carbonyl)piperidin-4-yl)azetidin-1-yl)cyclohexyl)oxy)-1-oxoisoindolin-2-yl)piperidine-2,6-dione]	67	83.2	11	> 30000	
